Where two headings read alike, the source gives them in different places. Values belong to the compound of their own block, whether it stands above or below them.
Assays:
COV644* = experiment: In vitro combination study, ovarian cancer cell line COV644; conditions: COV644*; 7+3 model
ES-2 = experiment: In vitro combination study, ovarian cancer cell line ES-2; conditions: 4+3 model
OVMANA [1] = tested on: OVMANA
SKOV3 [2] = tested on: SKOV3
JH)S-4 [3] = tested on: JH)S-4
A2780 [4] = tested on: A2780
DU4475 [5] = tested on: DU4475
HCC1187 = experiment: In vitro combination study, breast cancer cell line HCC1187; conditions: ER/PR −/−, HER2 −, 7 day pre-treatment + 6 day co-treatment
HCC1143 [6] = tested on: HCC1143
A2780 [7] = experiment: In vitro combination study, ovarian cancer cell line A2780; conditions: A2780; 4+3 model
CAOV-3 = experiment: In vitro combination study, ovarian cancer cell line CAOV-3; assay type: cell-based; conditions: 4+3 model
HCC1143 [8] = experiment: In vitro combination study, breast cancer cell line HCC1143; conditions: ER/PR −/−, HER2 −, 7 day pre-treatment + 6 day co-treatment
SKOV3 [9] = experiment: In vitro combination study, ovarian cancer cell line SKOV3; conditions: 4+3 model
OV-90 [10] = experiment: In vitro combination study, ovarian cancer cell line OV-90; conditions: OV-90; 4+3 model
TOV21G = experiment: In vitro combination study, ovarian cancer cell line TOV21G; assay type: cell-based; conditions: 4+3 model
TOV112D = experiment: In vitro combination study, ovarian cancer cell line TOV112D; conditions: 4+3 model
COV504 = conditions: COV504; 4+3 model
HCC1419 = experiment: In vitro combination study, breast cancer cell line HCC1419; conditions: ER/PR −/−, HER2 +, 7 day pre-treatment + 6 day co-treatment
SUM52PE = experiment: In vitro combination study, breast cancer cell line SUM52PE; conditions: ER/PR −/−, HER2 −, 7 day pre-treatment + 6 day co-treatment
OV-90 [11] = tested on: OV-90
COV434 = conditions: 4+3 model
OVMANA [12] = experiment: In vitro combination study, ovarian cancer cell line OVMANA; conditions: OVMANA; 4+3 model
COV362 = experiment: In vitro combination study, ovarian cancer cell line COV362; conditions: COV362; 4+3 model
KURAMOCHI = experiment: In vitro combination study, ovarian cancer cell line KURAMOCHI; conditions: KURAMOCHI; 4+3 model
MDA-MB-453 = experiment: In vitro combination study, breast cancer cell line MDA-MB-453; assay type: cell-based; conditions: ER/PR −/−, HER2 −, 7 day pre-treatment + 6 day co-treatment
MDA-MB-175VII = experiment: In vitro combination study, breast cancer cell line MDA-MB-175VII; conditions: ER/PR +/+, HER2 +, 7 day pre-treatment + 6 day co-treatment
MDA-MB-231 = experiment: In vitro combination study, breast cancer cell line MDA-MB-231; conditions: ER/PR −/−, HER2 −, 7 day pre-treatment + 6 day co-treatment
OVISE = experiment: In vitro combination study, ovarian cancer cell line OVISE; conditions: OVISE; 4+3 model
BT-20 = experiment: In vitro combination study, breast cancer cell line BT-20; conditions: ER/PR −/−, HER2 −, 7 day pre-treatment + 6 day co-treatment
DU4475 [13] = experiment: In vitro combination study, breast cancer cell line DU4475; conditions: ER/PR −/−, HER2 −, 7 day pre-treatment + 6 day co-treatment
JH)S-4 [14] = experiment: In vitro combination study, ovarian cancer cell line JH)S-4; conditions: 4+3 model

Structure (SMILES): COc1cc([C@@H]2c3cc4c(cc3[C@@H](O[C@@H]3O[C@@H]5CO[C@@H](C)O[C@H]5[C@H](O)[C@H]3O)[C@H]3COC(=O)[C@H]23)OCO4)cc(OC)c1O [Etoposide]
Synergy or antagonism of second agent with tazemetostat (IC50 shift of second agent) (HCC1143 [6]): C (key: B: Synergy > 4× IC50 shift; Synergy > 2× IC50 shift; No Effect; Antagonism; X: Not Tested) | Synergy or antagonism of second agent with tazemetostat (IC50 shift of second agent) (SUM159PT): C (key: B: Synergy > 4× IC50 shift; Synergy > 2× IC50 shift; No Effect; Antagonism; X: Not Tested)

Structure (SMILES): Cc1sc2c(c1C)C(c1ccc(Cl)cc1)=N[C@@H](CC(=O)OC(C)(C)C)c1nnc(C)n1-2 [JQ1]
Synergy or antagonism of second agent with tazemetostat (IC50 shift of second agent) (A2780 [7]): B (Synergy > 4× IC50 shift) | Synergy or antagonism of second agent with tazemetostat (IC50 shift of second agent) (CAOV-3): B (Synergy > 4× IC50 shift) | Synergy or antagonism of second agent with tazemetostat (IC50 shift of second agent) (HCC1143 [8]): C (Synergy > 2× IC50 shift) | Synergy or antagonism of second agent with tazemetostat (IC50 shift of second agent) (SKOV3 [9]): B (Synergy > 4× IC50 shift) | Synergy or antagonism of second agent with tazemetostat (IC50 shift of second agent) (OV-90 [10]): C (Synergy > 2× IC50 shift) | Synergy or antagonism of second agent with tazemetostat (IC50 shift of second agent) (ES-2): C (Synergy > 2× IC50 shift) | Synergy or antagonism of second agent with tazemetostat (IC50 shift of second agent) (TOV21G): C (Synergy > 2× IC50 shift) | Synergy or antagonism of second agent with tazemetostat (IC50 shift of second agent) (TOV112D): C (Synergy > 2× IC50 shift) | Synergy or antagonism of second agent with tazemetostat (IC50 shift of second agent) (COV504): C (Synergy > 2× IC50 shift) | Synergy or antagonism of second agent with tazemetostat (IC50 shift of second agent) (HCC1419): C (Synergy > 2× IC50 shift)

Structure (SMILES): Nc1ncn([C@@H]2O[C@H](CO)[C@@H](O)[C@H]2O)c(=O)n1 [Azacitidine]
Synergy or antagonism of second agent with tazemetostat (IC50 shift of second agent) (SUM52PE): C (Synergy > 2× IC50 shift) | Synergy or antagonism of second agent with tazemetostat (IC50 shift of second agent) (HCC38): C (key: B: Synergy > 4× IC50 shift; Synergy > 2× IC50 shift; No Effect; Antagonism; X: Not Tested) | Synergy or antagonism of second agent with tazemetostat (IC50 shift of second agent) (MDA-MB-468): C (key: B: Synergy > 4× IC50 shift; Synergy > 2× IC50 shift; No Effect; Antagonism; X: Not Tested) | Synergy or antagonism of second agent with tazemetostat (IC50 shift of second agent) (OV-90 [11]): C (key: B: Synergy > 4× IC50 shift; Synergy > 2× IC50 shift; No Effect; Antagonism; X: Not Tested) | Synergy or antagonism of second agent with tazemetostat (IC50 shift of second agent) (DU4475 [5]): C (key: B: Synergy > 4× IC50 shift; Synergy > 2× IC50 shift; No Effect; Antagonism; X: Not Tested)

Structure (SMILES): Nc1ccccc1NC(=O)c1ccc(CNc2nccc(-c3cccnc3)n2)cc1 [Mocetinostat]
Synergy or antagonism of second agent with tazemetostat (IC50 shift of second agent) (COV434): C (Synergy > 2× IC50 shift) | Synergy or antagonism of second agent with tazemetostat (IC50 shift of second agent) (OVMANA [12]): C (Synergy > 2× IC50 shift) | Synergy or antagonism of second agent with tazemetostat (IC50 shift of second agent) (COV362): C (Synergy > 2× IC50 shift) | Synergy or antagonism of second agent with tazemetostat (IC50 shift of second agent) (SKOV3 [9]): B (Synergy > 4× IC50 shift) | Synergy or antagonism of second agent with tazemetostat (IC50 shift of second agent) (OV-90 [10]): C (Synergy > 2× IC50 shift) | Synergy or antagonism of second agent with tazemetostat (IC50 shift of second agent) (KURAMOCHI): C (Synergy > 2× IC50 shift) | Synergy or antagonism of second agent with tazemetostat (IC50 shift of second agent) (TOV112D): C (Synergy > 2× IC50 shift)

Structure (SMILES): Cc1cc(Nc2cc(N3CCN(C)CC3)nc(/C=C/c3ccccc3)n2)n[nH]1 [ENMD-2076]
Synergy or antagonism of second agent with tazemetostat (IC50 shift of second agent) (SUM52PE): C (Synergy > 2× IC50 shift) | Synergy or antagonism of second agent with tazemetostat (IC50 shift of second agent) (MDA-MB-453): A (Antagonism) | Synergy or antagonism of second agent with tazemetostat (IC50 shift of second agent) (MDA-MB-175VII): C (Synergy > 2× IC50 shift)

Structure (SMILES): Nc1cc(C(F)(F)F)c(-c2cc(N3CCOCC3)nc(N3CCOCC3)n2)cn1 [BKM120]
Synergy or antagonism of second agent with tazemetostat (IC50 shift of second agent) (OVISE): C (Synergy > 2× IC50 shift) | Synergy or antagonism of second agent with tazemetostat (IC50 shift of second agent) (A2780 [7]): C (Synergy > 2× IC50 shift) | Synergy or antagonism of second agent with tazemetostat (IC50 shift of second agent) (BT-20): C (Synergy > 2× IC50 shift) | Synergy or antagonism of second agent with tazemetostat (IC50 shift of second agent) (COV434): C (Synergy > 2× IC50 shift) | Synergy or antagonism of second agent with tazemetostat (IC50 shift of second agent) (DU4475 [13]): A (Antagonism) | Synergy or antagonism of second agent with tazemetostat (IC50 shift of second agent) (COV644*): C (Synergy > 2× IC50 shift) | Synergy or antagonism of second agent with tazemetostat (IC50 shift of second agent) (SKOV3 [9]): C (Synergy > 2× IC50 shift) | Synergy or antagonism of second agent with tazemetostat (IC50 shift of second agent) (KURAMOCHI): C (Synergy > 2× IC50 shift) | Synergy or antagonism of second agent with tazemetostat (IC50 shift of second agent) (JH)S-4 [14]): C (Synergy > 2× IC50 shift) | Synergy or antagonism of second agent with tazemetostat (IC50 shift of second agent) (TOV112D): C (Synergy > 2× IC50 shift) | Synergy or antagonism of second agent with tazemetostat (IC50 shift of second agent) (COV504): C (Synergy > 2× IC50 shift) | Synergy or antagonism of second agent with tazemetostat (IC50 shift of second agent) (HCC1419): C (Synergy > 2× IC50 shift)

Further lines, with some results ahead:

Synergy or antagonism of second agent with tazemetostat (IC50 shift of second agent) (COV644*): C (Synergy > 2× IC50 shift) | Synergy or antagonism of second agent with tazemetostat (IC50 shift of second agent) (ES-2): C (Synergy > 2× IC50 shift)
Structure (SMILES): COc1cccc2c1C(=O)c1c(O)c3c(c(O)c1C2=O)C[C@@](O)(C(=O)CO)C[C@@H]3O[C@H]1C[C@H](N)[C@H](O)[C@H](C)O1 [Doxorubicin]
Synergy or antagonism of second agent with tazemetostat (IC50 shift of second agent) (RMUGS*): B (key: B: Synergy > 4× IC50 shift; Synergy > 2× IC50 shift; No Effect; Antagonism; X: Not Tested) | Synergy or antagonism of second agent with tazemetostat (IC50 shift of second agent) (OVMANA [1]): C (key: B: Synergy > 4× IC50 shift; Synergy > 2× IC50 shift; No Effect; Antagonism; X: Not Tested) | Synergy or antagonism of second agent with tazemetostat (IC50 shift of second agent) (SKOV3 [2]): B (key: B: Synergy > 4× IC50 shift; Synergy > 2× IC50 shift; No Effect; Antagonism; X: Not Tested)

Synergy or antagonism of second agent with tazemetostat (IC50 shift of second agent) (COV644*): C (Synergy > 2× IC50 shift) | Synergy or antagonism of second agent with tazemetostat (IC50 shift of second agent) (ES-2): C (Synergy > 2× IC50 shift) | Synergy or antagonism of second agent with tazemetostat (IC50 shift of second agent) (HCC1187): C (Synergy > 2× IC50 shift)
Structure (SMILES): CC(=O)O[C@H]1C(=O)[C@@]2(C)[C@H]([C@H](OC(=O)c3ccccc3)[C@]3(O)C[C@H](OC(=O)[C@H](O)[C@@H](NC(=O)c4ccccc4)c4ccccc4)C(C)=C1C3(C)C)[C@]1(OC(C)=O)CO[C@@H]1C[C@@H]2O [Paclitaxel]
Synergy or antagonism of second agent with tazemetostat (IC50 shift of second agent) (JH)S-4 [3]): C (key: B: Synergy > 4× IC50 shift; Synergy > 2× IC50 shift; No Effect; Antagonism; X: Not Tested) | Synergy or antagonism of second agent with tazemetostat (IC50 shift of second agent) (RMUGS*): C (key: B: Synergy > 4× IC50 shift; Synergy > 2× IC50 shift; No Effect; Antagonism; X: Not Tested) | Synergy or antagonism of second agent with tazemetostat (IC50 shift of second agent) (A2780 [4]): C (key: B: Synergy > 4× IC50 shift; Synergy > 2× IC50 shift; No Effect; Antagonism; X: Not Tested) | Synergy or antagonism of second agent with tazemetostat (IC50 shift of second agent) (DU4475 [5]): B (key: B: Synergy > 4× IC50 shift; Synergy > 2× IC50 shift; No Effect; Antagonism; X: Not Tested) | Synergy or antagonism of second agent with tazemetostat (IC50 shift of second agent) (OAW42): B (key: B: Synergy > 4× IC50 shift; Synergy > 2× IC50 shift; No Effect; Antagonism; X: Not Tested) | Synergy or antagonism of second agent with tazemetostat (IC50 shift of second agent) (SKOV3 [2]): C (key: B: Synergy > 4× IC50 shift; Synergy > 2× IC50 shift; No Effect; Antagonism; X: Not Tested)

Synergy or antagonism of second agent with tazemetostat (IC50 shift of second agent) (SUM52PE): B (Synergy > 4× IC50 shift) | Synergy or antagonism of second agent with tazemetostat (IC50 shift of second agent) (MDA-MB-231): C (Synergy > 2× IC50 shift)
Structure (SMILES): Cc1nc(Nc2ncc(C(=O)Nc3c(C)cccc3Cl)s2)cc(N2CCN(CCO)CC2)n1 [Dasatinib]
Synergy or antagonism of second agent with tazemetostat (IC50 shift of second agent) (HCC1569): C (key: B: Synergy > 4× IC50 shift; Synergy > 2× IC50 shift; No Effect; Antagonism; X: Not Tested)

— patent publication US11951108B2, “Combination therapy for treating cancer” (Epizyme, Inc., priority 2016, dated 2024)
